Source: patent US6756368B1, “Use of cobalt chelates for treating or preventing virus infection” (The Trustees of Columbia University in the City of New York, priority 1999, dated 2004)
Values joined by “and” are separate entries in the source; they are usually repeats but may differ in a detail not shown here. Equal entries are not always repeated. “Also recorded” adds a separate entry of the source. Where two headings read alike, the source gives them in different places.

What was measured:
HSV-1 [1] = test: Virus entry assay, αTIF immunofluorescence; type: cell-based, HSV-1 Glasgow strain 17
Method: (i) αTIF immunofluorescence. […] Pre-warmed media (37° C.) was added to each plate, incubated at 37° C. for the indicated times and washed twice with ice cold PBS on ice. The infected cells were fixed in 3.7% formaldehyde in PBS for 30 min at room temperature and washed with PBS. The fixed monolayers were permeabilized in −20° C. acetone at −20° C. for 10 min. Cells were washed with water and then PBS. Fixed cells were incubated in 10% normal goat serum (NGS; Roche, Indianapolis, Ind.) in 0.1% Tween 20 in PBS (PBST) for 20 min at RT and washed twice with PBST. Cover slips were then incubated in PBST containing 1% NGS and 1:200 polyclonal antibody anti-VP16 antibody (Clontech Laboratories, Inc.) for 30 min and washed 6 times with PBST. The infected cell monolayers were then incubated in PBST containing 1% NGS and 1:200 goat anti-rabbit IgG antibody conjugated to fluorescein isothiocyanate (FITC; Kirkegaard and Perry Laboratories, Inc.) for 30 min and washed 6 times with PBST. The cover slips were then mounted on slides in gel/mount solution (Biomeda, Fisher, Springfield, N.J.) and viewed with a 100× lens of a Zeiss LSM 4100 confocal laser scanning system attached to a Zeiss Axiovert 100TV inverted microscope. Each image is the average of 1 μm Z series.
There are several approaches to assessing the ability of virus to adsorb and enter a cell. […]

[2] = system: vesicular stomatitis virus (VSV); type: cell-based, VSV strain Indiana
HSV-1 [3] = system: HSV-1
poliovirus = type: cell-based, poliovirus strain P1 Mahoney
[4] = system: varicella-zoster virus (VZV); test: VZV infection of Helf cells, immunohistochemistry; type: cell-based, VZV strain Ellen
Method: Helf cell monolayers seeded on two chambered slides were infected with 20 μl cell-associated VZV in 1% FBS DMEM in the presence and absence of 50 μg/ml CTC-96. At 28 h postinfection, the slides were washed twice with PBS, fixed in 3.7% formaldehyde in PBS for 30 min at room temperature, and washed again. The infected cells were washed twice with Tris-buffered saline (TBS) and incubated at −20° C. in −20° C. acetone for 10 min. Slides were washed twice with TBS, blocked with 1% goat serum (Sigma, St. Louis, Mo.) in TBS for 20 min at room temperature, and incubated in 200 μl 1:200 rabbit polyclonal anti-ORF 29 in 1% goat serum TBS for 30 min at room temperature. The slides were washed three times with TBS for 5 min each and then incubated with 200 μl 1:200 goat anti-rabbit IgG conjugated horseradish? peroxidase (Kirkegaard and Perry Laboratories Inc.) in 1% goat serum TBS for 30 min at room temperature. Slides were washed three times with TBS for 5 min each. The peroxidase was developed for 5 min using the commercial kit, Alkaline Phosphatase Substrate Kit III (Vector Laboratories Inc., Burlingame, Calif.) according to the manufacturer's directions and then washed several times with water. The slides were viewed with a Leitz Dialux microscope. Endocytosis assay. Vero cells seeded on cover slips were incubated at 37° C. in 5% BCS DMEM with and without 50 μg/ml CTC-96 for various times. […]

In the case of `CC(/C=C(/C)[O-])=NCCN=C(C)/C=C(/C)[O-].Cc1ncc[nH]1.Cc1ncc[nH]1.[Br-].[Co+3]` [CTC-96], the “virus entry / nuclear accumulation of αTIF” value (HSV-1 [1]; 50 μg/ml, MOI 100, 30-60 min after shift to 37° C.) is reported as “no evidence for virus entering the cell; also recorded: unable to accumulate in the nucleus; also recorded: prevented nuclear accumulation”, the “virus bound to cells” value (HSV-1 [1]; 5 min after shift up to 37° C.) is reported as “less virus bound” and the “inhibition of VSV” value ([2]; 50 μg/ml, Vero cells) is reported as 100%. The “% Inhibition” value ([2]; VSV (Indiana), Vero, 50 μg/ml of CTC-96, plaque assay) was 100%, the VSV plaques ([2]; dilution −5, 50 μg/ml CTC96) was 0 and the VSV plaques ([2]; dilution −6, 50 μg/ml CTC96) was 0. For the same compound, the VSV plaques ([2]; dilution −7, 50 μg/ml CTC96) was 0, the “% Inhibition” value (HSV-1 [3]; HSV-1 (17), Vero, 50 μg/ml of CTC-96, plaque assay) was 100% and the “No. of Plaques” value (HSV-1 [3]; Initial [Drug] 0.016 μg/ml, Final [Drug] 0.016 μg/ml) was 114. The “No. of Plaques” value (HSV-1 [3]; Initial [Drug] 50 μg/ml, Final [Drug] 0.0083 μg/ml) was 46, the “No. of Plaques” value (HSV-1 [3]; Initial [Drug] 50 μg/ml, Final [Drug] 50 μg/ml) was 0 and the “No. of Plaques” value (HSV-1 [3]; Initial [Drug] 100 μg/ml, Final [Drug] 0.0016 μg/ml) was 23. The “No. of Plaques” value (HSV-1 [3]; Initial [Drug] 100 μg/ml, Final [Drug] 100 μg/ml) was 0, the “resistance to HSV-1 after prior incubation of Vero cell monolayers” value (HSV-1 [3]; cells preincubated with 50 μg/ml CTC-96) was “partial resistance” and the HSV-1 plaque formation (HSV-1 [3]; concentrations of CTC-96 >50 μg/ml) was “completely inhibited”. The HSV-1 plaque formation (HSV-1 [3]; dilution of the drug after adsorption of the virus) was “only partially inhibited”, the “plaque formation / infectivity after prior exposure of the virus to the drug” value (HSV-1 [3]; virus incubated with 50 μg/ml 30 min, drug diluted prior to adsorption) was “no effect on plaque formation; also recorded: slightly reduced the infectivity” and the virus survived treatment (HSV-1 [3]; virus suspension treated with drug 1 min, then diluted to final <1 ng/ml) was about 50%. For the same compound, the HSV-1 plaque formation (HSV-1 [3]; ≧50 μg/ml of CTC-96) was “completely inhibited”, the “% Inhibition” value (poliovirus; Poliovirus (P1/Mahoney), HeLa, 50 μg/ml of CTC-96, plaque assay) was 40% and the inhibition of poliovirus (poliovirus; first run, 50 μg/ml) was 42%. For the same compound, the “plaques recovered relative to −CTC-96” value (poliovirus; first run, 50 μg/ml) was 58%, the poliovirus plaques (poliovirus; first run, dilution −6, 50 μg/ml in diluent, no drug in overlay) was 91 and 80 and the poliovirus plaques (poliovirus; first run, dilution −7, 50 μg/ml in diluent, no drug in overlay) was 10 and 9. The poliovirus plaques (poliovirus; first run, dilution −8, 50 μg/ml in diluent, no drug in overlay) was 0, the inhibition of poliovirus (poliovirus; second run, 50 μg/ml) was 42% inhibition and the poliovirus plaques (poliovirus; second run, dilution −6, 50 μg/ml, drug also in overlay) was 165. For the same compound, the poliovirus plaques (poliovirus; second run, dilution −7, 50 μg/ml, drug also in overlay) was 18 and 16, the “cells positive for VZV” value ([4]; Helf cells, in the presence of CTC-96) was “Very few cells were positive” and the “% Inhibition” value ([4]; VZV (Ellen), Helt, 50 μg/ml of CTC-96, immunohistochemistry) was 100%.
